Measured values from patent publication US10472356B2, “Bicyclic ketone sulfonamide compounds” (AMGEN INC., priority 2015, dated 2019).

Tests used:
Type in all cases: cell-based
[1] = molecular target: T1, human Nav1.7 (Homo sapiens, UniProt Q15858); experiment: Nav 1.7 IWQ In Vitro Assay (IonWorks Quattro); conditions: HEK293 cells stably transfected with human Nav 1.7; IonWorks Quattro population patch-clamp; 26th pulse to −20 mV, 5 Hz; cells unclamped 5 to 8 minutes with compound; read-out: hNav1.7 IWQ IC50
T1 construct: expressed in transfected cells; host or cells: HEK293
In short: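 Population patch clamp on HEK293 cells stably expressing human Nav 1.7: held at −110 mV for three seconds, then 26 pulses of 150 msec to −20 mV at 5 Hz, before and after 5-8 min with one compound concentration. Percent inhibition from peak current at the 26th pulse.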

[2] = molecular target: T1, human Nav1.7; experiment: Nav 1.7 IWB In Vitro Assay (IonWorks Barracuda); conditions: HEK293 cells stably transfected with human Nav 1.7; IonWorks Barracuda population patch-clamp; cells clamped to −20 mV for 4 minutes with compound; 26th pulse; read-out: hNav1.7 IWB IC50
In short: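 IC50 derived from concentration-response of percent block of the 26th-pulse peak inward current, compound vs none. Protocol: stable human Nav 1.7 HEK293 cells on automated population patch clamp, held at −110 mV, 5 Hz train of 150 ms steps to −20 mV, 4 min compound exposure depolarized at −20 mV, 3 s repolarization, train repeated.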

[3] = molecular target: T1, human Nav1.7; experiment: Nav 1.7 In Vitro PatchXpress (PX) Assay; conditions: HEK 293 cells stably transfected with human Nav1.7; PatchXpress whole cell voltage clamp; partially inactivated state (holding potential yielding 20 to 50% inactivation); read-out: hNav1.7 PX IC50
In short: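 Percent inhibition of peak sodium current taken after 3 min exposure to one compound concentration, 3–5 cells each, with IC50 curve fits. Partially inactivated channels (20–50% inactivation at holding potential) in Nav1.7-HEK 293 cells, activated by 20 ms steps to −10 mV every 10 s.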

T1 sequence (Q15858 whole entry): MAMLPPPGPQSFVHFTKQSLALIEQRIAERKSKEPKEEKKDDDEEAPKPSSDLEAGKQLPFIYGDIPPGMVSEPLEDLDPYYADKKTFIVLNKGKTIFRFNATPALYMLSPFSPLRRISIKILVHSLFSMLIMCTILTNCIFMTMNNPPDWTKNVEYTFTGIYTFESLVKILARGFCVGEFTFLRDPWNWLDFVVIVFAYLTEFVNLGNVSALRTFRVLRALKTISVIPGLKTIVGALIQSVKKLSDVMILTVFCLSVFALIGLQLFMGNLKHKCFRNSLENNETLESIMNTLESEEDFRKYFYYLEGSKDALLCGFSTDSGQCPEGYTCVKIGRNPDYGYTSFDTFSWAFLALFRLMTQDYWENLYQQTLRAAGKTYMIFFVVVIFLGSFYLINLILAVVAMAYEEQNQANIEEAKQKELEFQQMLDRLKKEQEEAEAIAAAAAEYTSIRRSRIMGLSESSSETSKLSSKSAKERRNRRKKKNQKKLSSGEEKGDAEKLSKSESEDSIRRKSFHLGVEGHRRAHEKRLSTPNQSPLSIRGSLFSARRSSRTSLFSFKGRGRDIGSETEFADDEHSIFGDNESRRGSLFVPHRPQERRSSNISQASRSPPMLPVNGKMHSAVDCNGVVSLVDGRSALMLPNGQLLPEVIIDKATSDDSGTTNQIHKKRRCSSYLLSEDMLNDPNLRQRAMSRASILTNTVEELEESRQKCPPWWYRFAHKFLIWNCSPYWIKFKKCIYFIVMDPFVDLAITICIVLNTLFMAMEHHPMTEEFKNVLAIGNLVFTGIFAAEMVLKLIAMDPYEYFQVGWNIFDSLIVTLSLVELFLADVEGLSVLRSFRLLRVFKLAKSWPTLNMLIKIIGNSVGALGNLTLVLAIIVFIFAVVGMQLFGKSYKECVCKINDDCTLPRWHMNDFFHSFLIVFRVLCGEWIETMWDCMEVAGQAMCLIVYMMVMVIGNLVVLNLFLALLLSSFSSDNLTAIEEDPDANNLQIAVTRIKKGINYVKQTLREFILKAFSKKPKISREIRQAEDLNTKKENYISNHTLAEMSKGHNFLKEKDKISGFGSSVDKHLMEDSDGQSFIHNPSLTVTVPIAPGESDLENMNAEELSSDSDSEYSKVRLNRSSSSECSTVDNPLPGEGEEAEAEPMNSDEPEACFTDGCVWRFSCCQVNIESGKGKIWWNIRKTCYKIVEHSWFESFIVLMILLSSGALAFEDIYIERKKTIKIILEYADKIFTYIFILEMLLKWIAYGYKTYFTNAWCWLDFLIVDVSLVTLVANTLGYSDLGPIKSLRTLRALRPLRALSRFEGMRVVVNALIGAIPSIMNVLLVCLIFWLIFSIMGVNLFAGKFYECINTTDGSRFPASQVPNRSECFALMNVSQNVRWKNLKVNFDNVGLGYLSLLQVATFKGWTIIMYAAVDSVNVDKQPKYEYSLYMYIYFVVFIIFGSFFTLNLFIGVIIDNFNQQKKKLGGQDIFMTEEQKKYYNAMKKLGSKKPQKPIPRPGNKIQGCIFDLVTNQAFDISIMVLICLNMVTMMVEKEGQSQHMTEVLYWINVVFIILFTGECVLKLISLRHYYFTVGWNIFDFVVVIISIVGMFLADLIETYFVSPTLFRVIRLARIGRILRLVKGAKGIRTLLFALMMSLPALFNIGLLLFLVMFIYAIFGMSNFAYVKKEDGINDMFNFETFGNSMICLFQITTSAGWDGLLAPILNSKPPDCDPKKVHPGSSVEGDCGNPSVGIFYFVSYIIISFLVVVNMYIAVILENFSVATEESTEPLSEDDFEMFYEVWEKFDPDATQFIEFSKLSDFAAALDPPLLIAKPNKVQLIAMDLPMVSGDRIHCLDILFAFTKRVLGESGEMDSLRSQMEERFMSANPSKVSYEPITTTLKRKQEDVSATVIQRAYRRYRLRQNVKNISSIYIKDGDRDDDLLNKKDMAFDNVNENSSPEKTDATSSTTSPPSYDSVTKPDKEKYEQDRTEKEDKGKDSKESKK

IC50 [1] [nM] | IC50 [2] [nM] | IC50 [3] [nM] | Compound
54 | 55.3 | 166 | COc1cc(-c2cc(F)cc(Cl)c2)c(F)cc1-n1c2c(ccc1=O)CN(S(=O)(=O)Nc1ccccn1)CC2 (single isomer, unassigned) [Example 11-P, P-1-(3′-chloro-2,5′-difluoro-5-methoxy-4-biphenylyl)-2-oxo-N-2-pyridinyl-1,5,7,8-tetrahydro-1,6-naphthyridine-6(2H)-sulfonamide]
56.6 | 52.5 | 44.5 | COc1cc(-c2cc(F)cc(Cl)c2)c(F)cc1-n1c2c(ccc1=O)CN(S(=O)(=O)Nc1ccc(F)cn1)CC2 (single isomer, unassigned) [Example 12-P, P-1-(3′-chloro-2,5′-difluoro-5-methoxy-4-biphenylyl)-N-(5-fluoro-2-pyridinyl)-2-oxo-1,5,7,8-tetrahydro-1,6-naphthyridine-6(2H)-sulfonamide]
28.4 | 27.1 | 27.9 | COc1cc(-c2cc(F)cc(Cl)c2)c(F)cc1-n1c2c(ccc1=O)CN(S(=O)(=O)Nc1cccc(F)n1)CC2 (single isomer, unassigned) [Example 13-P, P-1-(3′-chloro-2,5′-difluoro-5-methoxy-4-biphenylyl)-N-(6-fluoro-2-pyridinyl)-2-oxo-1,5,7,8-tetrahydro-1,6-naphthyridine-6(2H)-sulfonamide]
26 | 12.4 | 103 | COc1cc(-c2cc(F)cc(F)c2)c(F)cc1-n1c2c(ccc1=O)CN(S(=O)(=O)Nc1cccc(F)n1)CC2 (single isomer, unassigned) [Example 14-P, P-N-(6-fluoro-2-pyridinyl)-2-oxo-1-(2,3′,5′-trifluoro-5-methoxy-4-biphenylyl)-1,5,7,8-tetrahydro-1,6-naphthyridine-6(2H)-sulfonamide]
2.6 | 2.4 | 15.8 | COc1cc(-c2cccc(C(F)(F)F)c2)c(F)cc1-n1c2c(ccc1=O)CN(S(=O)(=O)Nc1ccon1)CC2 (single isomer, unassigned) [Example 16-P, P-1-(2-fluoro-5-methoxy-3′-(trifluoromethyl)-4-biphenylyl)-N-3-isoxazolyl-2-oxo-1,5,7,8-tetrahydro-1,6-naphthyridine-6(2H)-sulfonamide]
2.9 | 3.9 | 17.5 | COc1cc(-c2cc(F)cc(Cl)c2)c(F)cc1-n1c2c(ccc1=O)CN(S(=O)(=O)Nc1ccon1)CC2 (single isomer, unassigned) [Example 18-P, P-1-(3′-chloro-2,5′-difluoro-5-methoxy-4-biphenylyl)-N-3-isoxazolyl-2-oxo-1,5,7,8-tetrahydro-1,6-naphthyridine-6(2H)-sulfonamide]
5 | 7.4 | 33.3 | COc1cc(-c2cccc(OC(F)F)c2)c(F)cc1-n1c2c(ccc1=O)CN(S(=O)(=O)Nc1ccon1)CC2 (single isomer, unassigned) [Example 19-P, P-1-(3′-(difluoromethoxy)-2-fluoro-5-methoxy-4-biphenylyl)-N-3-isoxazolyl-2-oxo-1,5,7,8-tetrahydro-1,6-naphthyridine-6(2H)-sulfonamide]
3.6 | 11.5 | 39.3 | COc1cc(-c2ccc(F)c(F)c2)c(F)cc1-n1c2c(ccc1=O)CN(S(=O)(=O)Nc1ccon1)CC2 (single isomer, unassigned) [Example 20-P, P-N-3-isoxazolyl-2-oxo-1-(2,3′,4′-trifluoro-5-methoxy-4-biphenylyl)-1,5,7,8-tetrahydro-1,6-naphthyridine-6(2H)-sulfonamide]
7.7 | 9.5 | 24.3 | COc1cc(-c2ccc(C)c(F)c2)c(F)cc1-n1c2c(ccc1=O)CN(S(=O)(=O)Nc1ccon1)CC2 (single isomer, unassigned) [Example 21-P, P-1-(2,3′-difluoro-5-methoxy-4′-methyl-4-biphenylyl)-N-3-isoxazolyl-2-oxo-1,5,7,8-tetrahydro-1,6-naphthyridine-6(2H)-sulfonamide]
3.2 | 8 | 106 | COc1cc(-c2ccc(F)c(C)c2)c(F)cc1-n1c2c(ccc1=O)CN(S(=O)(=O)Nc1ccon1)CC2 (single isomer, unassigned) [Example 22-P, P-1-(2,4′-difluoro-5-methoxy-3′-methyl-4-biphenylyl)-N-3-isoxazolyl-2-oxo-1,5,7,8-tetrahydro-1,6-naphthyridine-6(2H)-sulfonamide]
5.2 | 3.8 | 20.9 | COc1cc(-c2ccc(Cl)c(C)c2)c(F)cc1-n1c2c(ccc1=O)CN(S(=O)(=O)Nc1ccon1)CC2 (single isomer, unassigned) [Example 24-P, P-1-(4′-chloro-2-fluoro-5-methoxy-3′-methyl-4-biphenylyl)-N-3-isoxazolyl-2-oxo-1,5,7,8-tetrahydro-1,6-naphthyridine-6(2H)-sulfonamide]
13.3 | 37.5 | 197 | COc1cc(-c2ccc(Cl)c(C)c2)c(F)cc1-n1c2c(ccc1=O)CN(S(=O)(=O)Nc1ncccn1)CC2 (single isomer, unassigned) [Example 30-P, P-1-(4′-chloro-2-fluoro-5-methoxy-3′-methyl-4-biphenylyl)-2-oxo-N-2-pyrimidinyl-1,5,7,8-tetrahydro-1,6-naphthyridine-6(2H)-sulfonamide]
18.4 | 17.5 | 144 | COc1cc(-c2ccc(F)c(F)c2)c(F)cc1-n1c2c(ccc1=O)CN(S(=O)(=O)Nc1cccnn1)CC2 (single isomer, unassigned) [Example 32-P, P-2-oxo-N-3-pyridazinyl-1-(2,3′,4′-trifluoro-5-methoxy-4-biphenylyl)-1,5,7,8-tetrahydro-1,6-naphthyridine-6(2H)-sulfonamide]
14.7 | 12.6 | 21.3 | COc1cc(-c2ccc(Cl)c(C)c2)c(F)cc1-n1c2c(ccc1=O)CN(S(=O)(=O)Nc1cccnn1)CC2 (single isomer, unassigned) [Example 33-P, P-1-(4′-chloro-2-fluoro-5-methoxy-3′-methyl-4-biphenylyl)-2-oxo-N-3-pyridazinyl-1,5,7,8-tetrahydro-1,6-naphthyridine-6(2H)-sulfonamide]
9.2 | 12.2 | 192 | COc1cc(C#CC2CCCC2)c(F)cc1-n1c2c(ccc1=O)CN(S(=O)(=O)Nc1ccon1)CC2 (single isomer, unassigned) [Example 34-P, P-1-(4-(cyclopentylethynyl)-5-fluoro-2-methoxyphenyl)-N-3-isoxazolyl-2-oxo-1,5,7,8-tetrahydro-1,6-naphthyridine-6(2H)-sulfonamide]
6.7 | 10.9 | 56.1 | COc1cc(-c2cc(F)cc(Cl)c2)c(F)cc1-n1c2c(ccc1=O)CN(S(=O)(=O)Nc1cccnn1)CC2 (single isomer, unassigned) [Example 38-P, P-1-(3′-chloro-2,5′-difluoro-5-methoxy-4-biphenylyl)-2-oxo-N-3-pyridazinyl-1,5,7,8-tetrahydro-1,6-naphthyridine-6(2H)-sulfonamide]
19.4 | 9.2 | 107 | COc1cc(-c2cc(OC)c(-n3c4c(ccc3=O)CN(S(=O)(=O)Nc3ccon3)CC4)cc2F)ccc1C (single isomer, unassigned) [Example 58-P, P-1-(2-fluoro-3′,5-dimethoxy-4′-methyl-4-biphenylyl)-N-3-isoxazolyl-2-oxo-1,5,7,8-tetrahydro-1,6-naphthyridine-6(2H)-sulfonamide]
3.4 | 3.5 | 16.9 | COc1cc(-c2cccc(C(F)(F)F)c2)c(Cl)cc1-n1c2c(ccc1=O)CN(S(=O)(=O)Nc1cccnn1)CC2 (single isomer, unassigned) [Example 91-P, P-1-(2-chloro-5-methoxy-3′-(trifluoromethyl)-[1,1′-biphenyl]-4-yl)-2-oxo-N-(pyridazin-3-yl)-1,2,7,8-tetrahydro-1,6-naphthyridine-6(5H)-sulfonamide]
40.5 | 40 | 230 | COc1cc(-c2cc(F)cc(F)c2)c(F)cc1-n1c2c(ccc1=O)CN(S(=O)(=O)Nc1ccon1)[C@H](C)C2 [Example 3-D-P, P-(7R)-N-3-isoxazolyl-7-methyl-2-oxo-1-(2,3′,5′-trifluoro-5-methoxy-4-biphenylyl)-1,5,7,8-tetrahydro-1,6-naphthyridine-6(2H)-sulfonamide]
2.3 | 3.8 | 37.1 | COc1cc(-c2cccc(OC(F)(F)F)c2)c(F)cc1-n1c2c(ccc1=O)CN(S(=O)(=O)Nc1cccnn1)CC2 [Example 66, P-1-(2-fluoro-5-methoxy-3′-(trifluoromethoxy)-[1,1′-biphenyl]-4-yl)-2-oxo-N-(pyridazin-3-yl)-1,2,7,8-tetrahydro-1,6-naphthyridine-6(5H)-sulfonamide]
